What was measured:
[1] = system: Staphylococcus aureus; assay: Antibacterial activity against methicillin resistant Staphylococcus aureus N315 after 24 hrs by two-fold broth serial dilution method; assay type: functional; details: N315, 24 h
[2] = system: Bacillus subtilis; assay: Antibacterial activity against Bacillus subtilis ATCC 21216 after 24 hrs by two-fold broth serial dilution method; assay type: functional; details: ATCC 21216, 24 h
[3] = system: Micrococcus luteus; assay: Antibacterial activity against Micrococcus luteus ATCC 4698 after 24 hrs by two-fold broth serial dilution method; assay type: functional; details: ATCC 4698, 24 h
[4] = system: Escherichia coli; assay: Antimicrobial activity against Escherichia coli JM 109 after 24 hrs by two-fold broth serial dilution method; assay type: functional; details: JM 109, 24 h
[5] = system: Pseudomonas aeruginosa; assay: Antimicrobial activity against Pseudomonas aeruginosa ATCC 27853 after 24 hrs by two-fold broth serial dilution method; assay type: functional; details: ATCC 27853, 24 h
[6] = system: Shigella dysenteriae; assay: Antimicrobial activity against Shigella dysenteriae after 24 hrs by two-fold broth serial dilution method; assay type: functional
[7] = system: Candida albicans; assay: Antifungal activity against Candida albicans ATCC 76615 after 24 hrs; assay type: functional; details: ATCC 76615, 24 h
[8] = system: Cyberlindnera jadinii; assay: Antifungal activity against Candida utilis after 24 hrs; assay type: functional; details: Williopsis jadinii
[9] = system: Aspergillus flavus; assay: Antifungal activity against Aspergillus flavus after 24 hrs; assay type: functional
[10] = system: Saccharomyces cerevisiae; assay: Antifungal activity against Saccharomyces cerevisiae after 24 hrs; assay type: functional
[11] = system: Pichia norvegensis; assay: Antifungal activity against Candida mycoderma after 24 hrs; assay type: functional
[12] = system: Escherichia coli; assay: Antimicrobial activity against Escherichia coli; assay type: functional
[13] = system: Pseudomonas aeruginosa; assay: Antimicrobial activity against Pseudomonas aeruginosa; assay type: functional
[14] = system: Staphylococcus aureus; assay: Antimicrobial activity against Staphylococcus aureus; assay type: functional
[15] = system: Candida albicans; assay: Antifungal activity against Candida albicans; assay type: functional
[16] = system: Aspergillus niger; assay: Antifungal activity against Aspergillus niger; assay type: functional
[17] = system: Aspergillus flavus; assay: Antifungal activity against Aspergillus flavus; assay type: functional
[18] = system: Fusarium oxysporum; assay: Antifungal activity against Fusarium oxysporum; assay type: functional
[19] = system: Staphylococcus aureus; assay: Antimicrobial activity against Staphylococcus aureus ATCC 25923 assessed as zone of inhibition at 100 ug/ml after 24 hrs by disc diffusion method; assay type: functional; details: ATCC 25923, 24 h, read-out: IZ
[20] = system: Klebsiella pneumoniae; assay: Antimicrobial activity against Klebsiella pneumoniae ATCC 700603 assessed as zone of inhibition at 100 ug/ml after 24 hrs by disc diffusion method; assay type: functional; details: ATCC 700603, 24 h, read-out: IZ
[21] = system: Streptococcus agalactiae; assay: Antimicrobial activity against Streptococcus agalactiae 55118 assessed as zone of inhibition at 100 ug/ml after 24 hrs by disc diffusion method; assay type: functional; details: Streptococcus agalactiae, 55118, 24 h; read-out: IZ
[22] = system: Bacillus subtilis; assay: Antimicrobial activity against Bacillus subtilis; assay type: functional
[23] = system: Salmonella typhimurium; assay: Antimicrobial activity against Salmonella typhimurium; assay type: functional, Salmonella enterica subsp. enterica serovar Typhimurium; details: Salmonella enterica
[24] = system: Priestia megaterium; assay: Antimicrobial activity against Bacillus megaterium; assay type: functional
[25] = system: Micrococcus luteus; assay: Antibacterial activity against Micrococcus luteus; assay type: functional
[26] = system: SiHa; assay: Growth inhibition of human SiHa cells; assay type: functional
[27] = system: MDA-MB-231; assay: Growth inhibition of human MDA-MB-231 cells; assay type: functional
[28] = system: PANC-1; assay: Growth inhibition of human PANC1 cells; assay type: functional

Cc1cc(=O)oc2cc(OCC(O)Cn3cnnn3)cc(OCC(O)Cn3cnnn3)c12 (stereo not drawn)
32 to 512 µg/mL: MIC [1] | MIC [2] | MIC [3] | MIC [4] | MIC [5] | MIC [6] | MIC [7] | MIC [8] | MIC [9] | MIC [10] | MIC [11]

CCn1cc(C(=O)O)c(=O)c2cc(F)c(N3CCNCC3)cc21 [NORFLOXACIN]
1 to 16 µg/mL: MIC [1] | MIC [2] | MIC [3] | MIC [4] | MIC [5] | MIC [6] | MIC [7] | MIC [8] | MIC [9] | MIC [10] | MIC [11]

OC(Cn1cncn1)(Cn1cncn1)c1ccc(F)cc1F [FLUCONAZOLE]
25 µg/mL: MIC [12] | MIC [13] | MIC [14] | MIC [15] | MIC [16]
1 to 256 µg/mL: MIC [1] | MIC [2] | MIC [3] | MIC [4] | MIC [5] | MIC [6] | MIC [7] | MIC [8] | MIC [9] | MIC [10] | MIC [11]

Cc1cc(=O)oc2cc(OCC(O)Cn3cnnn3)ccc12 (stereo not drawn)
8 to 512 µg/mL: MIC [1] | MIC [2] | MIC [3] | MIC [4] | MIC [5] | MIC [6] | MIC [7] | MIC [8] | MIC [9] | MIC [10] | MIC [11]

Clc1ccccc1C(c1ccccc1)(c1ccccc1)n1ccnc1 [CLOTRIMAZOLE]
100 µg/mL: MIC [17] | MIC [16] | MIC [18]

CCCCn1nnnc1Sc1c(OC)nc(N)nc1OC
10 to 24 mm: zone of inhibition at 100 µg/mL [19] | zone of inhibition at 100 µg/mL [20] | zone of inhibition at 100 µg/mL [21]

O=C(O)c1cn(C2CC2)c2cc(N3CCN(C(=O)CCSc4nnnn4-c4ccccc4)CC3)c(F)cc2c1=O
15.6 µg/mL: MIC [12] | MIC [22] | MIC [23] | MIC [24] | MIC [25]
≤ 1000 nM: GI50 [26] | GI50 [27] | GI50 [28]

Source: ChEMBL document CHEMBL4342421, “Current scenario of tetrazole hybrids for antibacterial activity” (Eur J Med Chem, 2019)
